Source: patent US9497972B2, “Compositions comprising a biological control agent and an insecticide” (priority 2012, dated 2016)

Columns and labels:
Format in all cases: in vivo
Myzus persicae [1] = assay: Myzus persicae spray test (MYZUPE), Example A: Chinese cabbage leaf-disks
Experimental: (§1) For all examples efficiencies of the compositions comprising at least one BCA and at least one specific insecticide has been determined by the “Colby-formula”: The expected efficacy of a given combination of two compounds is calculated as follows (see Colby, S. R., “Calculating Synergistic and antagonistic Responses of Herbicide Combinations”, Weeds 15, pp. 20-22, 1967):
(§2) If • X is the efficacy expressed in % mortality of the untreated control for test compound A at a concentration of m ppm respectively m g/ha, • Y is the efficacy expressed in % mortality of the untreated control for test compound B at a concentration of n ppm respectively n g/ha, • E is the efficacy expressed in % mortality of the untreated control using the mixture of A and B at m and n ppm respectively m and n g/ha, then is E=X+Y−(X×Y/100)
(§3) If the observed insecticidal efficacy of the combination is higher than the one calculated as “E”, then the combination of the two compounds is more than additive, i.e., there is a synergistic effect.
Myzus persicae—Spray Test (MYZUPE)
(§4) To produce a suitable preparation of active compound, 1 part by weight of active compound is mixed with the stated amount of solvent and emulsifier, and the concentrate is diluted with emulsifier-containing water to the desired concentration. To produce a suitable preparation of a spore suspension the spores are diluted with emulsifier-containing water to the desired concentration.
Chinese cabbage (Brassica pekinensis) leaf-disks infected with all instars of the green peach aphid (Myzus persicae), are sprayed with a preparation of the active ingredient of the desired concentration.
After the specified period of time, mortality in % is determined. 100% means all aphids have been killed; 0% means none of the aphids have been killed. The mortality values determined thus are recalculated using the Colby-formula (see above).

Phaedon cochleariae = Phaedon cochleariae spray test, Example C: Chinese cabbage leaf-disks
Experimental: as §1, §2, §3
Phaedon cochleariae—Spray Test
as §4
Chinese cabbage (Brassica pekinensis) leaf-disks are sprayed with a preparation of the active ingredient of the desired concentration. Once dry, the leaf disks are infested with mustard beetle larvae (Phaedon cochleariae).
After the specified period of time, mortality in % is determined. 100% means all beetle larvae have been killed and 0% means none of the beetle larvae have been killed. The mortality values determined thus are recalculated using the Colby-formula (see above).

Myzus persicae [2] = assay: Myzus persicae spray test, Example E: cabbage leaves (Brassica oleracea); details: 1 ppm
Experimental: as §1, §2, §3
Myzus persicae—Spray Test […]
(§5) After the specified period of time, mortality in % is determined. […] The mortality values determined thus are recalculated using the Colby-formula (see above).

Tetranychus urticae = Tetranychus urticae spray test, OP-resistant, Example B: French beans
Experimental: as §1, §2, §3
Tetranychus urticae—Spray Test, OP-Resistant […]
as §5

Spodoptera frugiperda = Spodoptera frugiperda spray test, Example D: maize leaf sections
Experimental: as §1, §2, §3
Spodoptera frugiperda—Spray Test
as §4, with “preparation of the active compound,” for “preparation of active compound,”
Maize (Zea mais) leaf sections are sprayed with a preparation of the active ingredient of the desired concentration. Once dry, the leaf sections are infested with fall armyworm larvae (Spodoptera frugiperda).
After the specified period of time, mortality in % is determined. 100% means all caterpillars have been killed and 0% means none of the caterpillars have been killed. The mortality values determined thus are recalculated using the Colby-formula (see above).

Compound: CN/C(=N\[N+](=O)[O-])NCc1cnc(Cl)s1 [Clothianidin (I142), Clothianidin]
- Efficacy in % after 1^d (Myzus persicae [1]; 0.8 g/ha): 70%
- Efficacy in % after 6^d (Myzus persicae [1]; 4 g/ha): 70%
- Efficacy in % after 2^d (Phaedon cochleariae; 20 g ai/ha): 0%

Compound: O=[N+]([O-])NC1=NCCN1Cc1ccc(Cl)nc1 [Imidacloprid (I144), Imidacloprid]
- Efficacy in % after 6^d (Myzus persicae [1]; 0.032 g/ha): 0%
- Efficacy in % after 1^d (Myzus persicae [1]; 0.16 g/ha): 0%
- Efficacy in % after 1^d (Myzus persicae [1]; 0.4 g/ha): 70%

Compound: CC(c1ccc(C(F)(F)F)nc1)S(C)(=O)=NC#N (centres unmarked) [Sulfoxaflor (I149), Sulfoxaflor]
- Efficacy in % after 6^d (Myzus persicae [1]; 0.08 g/ha): 70%
- Efficacy in % after 6^d (Myzus persicae [1]; 0.4 g/ha): 70%

Compound: N#C/N=C1\SCCN1Cc1ccc(Cl)nc1 [Thiacloprid (I146), Thiacloprid]
- Efficacy in % after 6^d (Myzus persicae [1]; 0.16 g/ha): 0%
- Efficacy in % after 6^d (Myzus persicae [1]; 0.8 g/ha): 70%
- Efficacy in % after 1^d (Myzus persicae [2]): 35%

Compound: CN1COCN(Cc2cnc(Cl)s2)/C1=N\[N+](=O)[O-] [Thiamethoxam (I147), Thiamethoxam]
- Efficacy in % after 6^d (Myzus persicae [1]; 0.16 g/ha): 0%
- Efficacy in % after 1^d (Myzus persicae [1]; 0.4 g/ha): 0%
- Efficacy in % after 1^d (Myzus persicae [1]; 2 g/ha): 0%

Compound: Spinosad [Spinosad (I151)]
- Efficacy in % after 6^d (Myzus persicae [1]; 20 g/ha): 0%
- Efficacy in % after 6^d (Phaedon cochleariae; 4 g ai/ha): 0%
- Efficacy in % after 6^d (Tetranychus urticae; 4 g ai/ha): 0%
- Efficacy in % after 2^d (Tetranychus urticae; 20 g ai/ha): 50%
- Efficacy in % after 6^d (Spodoptera frugiperda; 0.16 g ai/ha): 0%
- Efficacy in % after 2^d (Spodoptera frugiperda; 0.8 g ai/ha): 0%

Compound: Spinetoram [Spinetoram (I150)]
- Efficacy in % after 6^d (Phaedon cochleariae; 0.16 g ai/ha): 0%
- Efficacy in % after 6^d (Phaedon cochleariae; 0.8 g ai/ha): 33%
- Efficacy in % after 2^d (Spodoptera frugiperda; 0.16 g ai/ha): 67%
